The record followed here is US20230270113A1, “FUNGICIDAL MIXTURES” (Adama Makhteshim Ltd., priority 2020, published 2023).

Like-named read-outs stand apart in the source and are kept apart here.

Assay [1] relates to Plasmopara viticola. Nature of the assay: Example 22: greenhouse control of Plasmopara viticola in grape, fluxapyroxad and folpet. The class given is in vivo. The note with it: variety Barbera.
The test system of assay [2] is Plasmopara viticola. Description: Example 7: greenhouse control of Plasmopara viticola in grape plants, folpet with partners. The class given is in vivo.
For assay [3], the system named is Alternaria solani. Nature of the assay: Example 4: greenhouse control of Alternaria solani in tomato seedlings, phthalimides with DMI and/or fluxapyroxad. The class given is in vivo. The note with it: Table 9.
Assay [4] has as its system Venturia inaequalis. Nature of the assay: Example 13: greenhouse control of apple scab, fluxapyroxad and captan. The class given is in vivo.
The subject of assay [5] is Sphaerotheca fuliginea. Description: Example 10: greenhouse control of Sphaerotheca fuliginea on melon plants. The class given is in vivo.
Assay [6] deals with Erysiphe necator. Nature of the assay: Example 9: greenhouse control of Erysiphe necator in grape plants. The class given is in vivo. On the procedure:
• An experiment was conducted in controlled conditions under a greenhouse to evaluate the fungicidal activity of the mixture comprising (1) phthalimide fungicide (folpet, captan) and (2) demethylation inhibitor fungicide (difenoconazole) or a quinone outside inhibitors (azoxystrobin, pyraclostrobin), toward Erysiphe necator in grape plants, variety Barbera. In addition, the activity of phthalimide with two fungicides (A); demethylation inhibitor fungicide (difenoconazole) or a quinone outside inhibitors (azoxystrobin, pyraclostrobin and dehydrogenase inhibitor fungicide (fluxapyroxad) was also tested. • The experiment was conducted by applying compositions of fluxapyroxad, difenoconazole (Score® 10 WG), azoxystrobin (Ortiva®), pyraclostrobin (Cabrio® EC) and folpet (Folpan 80 WDG®) alone or together. The compositions were diluted with water. Water amount used was equivalent to 800 L/ha. Application was performed in an automatic spraying cabin equipped with 2 flatfan AI11003VS nozzles. • Treatments: • Folpet 1000 gr (A.I.)/ha • Fluxapyroxad 45 gr (A.I.)/ha • Difenoconazole 37.5 gr (A.I.)/ha • Difenoconazole 37.5 gr (A.I.)/ha+folpet 1000 gr (A.I.)/ha • Azoxystrobin 90 gr (A.I.)/ha • Azoxystrobin 90 gr (A.I.)/ha+folpet 1000 gr (A.I.)/ha • Pyraclostrobin 75 gr (A.I.)/ha • Pyraclostrobin 75 gr (A.I.)/ha+folpet 1000 gr (A.I.)/ha • Fluxapyroxad 45 gr (A.I.)/ha+Difenoconazole 37.5 gr (A.I.)/ha • Fluxapyroxad 45 gr (A.I.)/ha+Difenoconazole 37.5 gr (A.I.)/ha+folpet 1000 gr (A.I.)/ha • Azoxystrobin 90 gr (A.I.)/ha+Fluxapyroxad 45 gr (A.I.)/ha • Azoxystrobin 90 gr (A.I.)/ha+Fluxapyroxad 45 gr (A.I.)/ha+folpet 1000 gr (A.I.)/ha • Azoxystrobin 90 gr (A.I.)/ha+Difenoconazole 37.5 gr (A.I.)/ha • Azoxystrobin 90 gr (A.I.)/ha+Difenoconazole 37.5 gr (A.I.)/ha+folpet 1000 gr (A.I.)/ha • Pyraclostrobin 75 gr (A.I.)/ha+Fluxapyroxad 45 gr (A.I.)/ha • Pyraclostrobin 75 gr (A.I.)/ha+Fluxapyroxad 45 gr (A.I.)/ha+folpet 1000 gr (A.I.)/ha • Pyraclostrobin 75 gr (A.I.)/ha+Difenoconazole 37.5 gr (A.I.)/ha • Pyraclostrobin 75 gr (A.I.)/ha+Difenoconazole 37.5 gr (A.I.)/ha+folpet 1000 gr (A.I.)/ha • To test for fungicidal control of Erysiphe necator, the grape plants were sprayed with each of the above treatments. Each of the above treatments was applied from 4 to 10 times according to the disease development, applications occurring 7-14 days after the previous treatment. The treatments were composed of 4 replicates. • Evaluations were performed for the whole duration of the experiment. At each time the incidence and the severity of Erysiphe necator on plants parts was determined.

Assay [7] relates to Venturia inaequalis. Description: Example 2: greenhouse control of apple scab, phthalimides with cyprodinil and/or fluxapyroxad. The class given is in vivo. The note with it: Table 6; captan or folpet 1200, cyprodinil 300, fluxapyroxad 90 gAI/ha; one spray 1 day before inoculation.
Assay [8] deals with Alternaria solani. Description: Example 5: greenhouse control of Alternaria solani in tomato, phthalimides with azoxystrobin and/or fluxapyroxad. The class given is in vivo.
In assay [9] the test system is Zymoseptoria tritici Tri-R6 strain. The class given is in vivo. The note with it: for residual efficacy of the contact active ingredients after the washing step: 21 and 28 days after inoculation; for efficacy in the untreated area: contact fungicide as partner of FLUXAPYROXAD
Assay [10] relates to Zymoseptoria tritici. Nature of the assay: Example 28: in planta bioassay of penetration and translocation of QoI with folpet, wheat leaf segments. The class given is in vivo. The note with it: example written in the present tense.
Assay [11] concerns Plasmopara viticola. Description: Example 8: greenhouse control of Plasmopara viticola in young grape plants, folpet with potassium phosphonate.
The test system of assay [12] is Phytophthora infestans. The class given is in vivo. The note with it: tomato.
For assay [13], the system named is Alternaria solani. Description: Example 6b: greenhouse control of Alternaria solani in potato plants. The class given is in vivo.
The test system of assay [14] is Botrytis cinerea. Description: Example 11: greenhouse control of Botrytis cinerea in strawberry. The class given is in vivo.
In assay [15] the test system is Venturia inaequalis. Nature of the assay: Example A: greenhouse control of apple scab, phthalimides with DMI and/or fluopyram. The class given is in vivo. The note with it: for % control observed on leaves 26 DAYS after the application / % control observed on leaves 19 DAYS after the application: captan or folpet 1200, difenoconazole 75, tebuconazole 150, fluopyram 150 gAI/ha; for Var % (19/26 DAYS): change of % control from 19 to 26 days.

In assay [16] the test system is Venturia inaequalis. Description: Example 1b: greenhouse control of apple scab, reduced rates of phthalimides and difenoconazole. The class given is in vivo. The note with it: for % control observed on leaves 26 DAYS after the application / % control observed on leaves 19 DAYS after the application: captan or folpet 900, difenoconazole 35, tebuconazole 150, fluopyram 150 gAI/ha.

Where [17] appears, read: captan or folpet 1200, difenoconazole 75, tebuconazole 150, fluxapyroxad 75 gAI/ha, one spray 1 day before inoculation.
[18] abbreviates: Table 10, captan or folpet 1200, azoxystrobin 120, fluxapyroxad 75 gAI/ha, one spray 1 day before inoculation.
Where [19] appears, read: 28 days, comparison with FLUXAPYROXAD alone.
Where [20] appears, read: Table 2, one spray 1 day before inoculation, severity based.
The mark [21] stands for this setting: Table 4, one spray 1 day before inoculation.
The mark [22] stands for this setting: Table 10, captan or folpet 900 gAI/ha.

On to `Cn1cc(C(=O)Nc2ccccc2-c2cc(F)c(F)c(F)c2)c(C(F)F)n1` [FLUXAPIROXAD, fluxapyroxad], for which the “effect against Plasmopara viticola” value in [1] was “limited effect”. Also, the “% control observed on leaves 21 DAYS after the application” value (“% control observed on leaves 21 DAYS” below) in assay [2] (rate 45 gr (A.I.)/ha) is 35.1%; in assay [5] (rate 75 gr (A.I.)/ha) it was 72.5%; in [6] (rate 45 gr (A.I.)/ha) it was 68.7%. The “% control observed on leaves 20 DAYS after the application” value (“% control observed on leaves 20 DAYS” for short) in [3] (setting [17]) amounted to 60.4%; in assay [8] (setting [18]), 66.6%; in assay [8] (rate 75 gAI/ha, tomato), 66.6%. For the same compound, the “% control observed on leaves 26 DAYS after the application” value (“% control observed on leaves 26 DAYS” for short) in [4] (rate 45 gAI/ha) worked out at 38.6%; in [4] (rate 55 gAI/ha) it was 61.7%; in assay [4] (rate 75 gAI/ha) it was 78.4%; in assay [4] (rate 90 gAI/ha), 86.6%; in [7], 75%. For the same compound, the “% control observed on leaves 14 DAYS after the application” value (from here on “% control observed on leaves 14 DAYS”) in assay [8] (rate 75 gAI/ha, tomato) turned out to be 75.3%. Further, the “Var % (14/20 DAYS)” value in assay [8] (rate 75 gAI/ha, tomato) is reported as −11.6%. The “efficacy in the treated area” value in assay [9] (setting [19]) is “better protection than when used with SULPHUR or CHLOROTHALONIL”.

Consider `S1SSSSSSS1` [SULPHUR], for which the “difference from the untreated control after the washing step, treated and untreated areas” value (“difference from the untreated control” for short) in assay [10] is recorded as “no significant difference from the untreated control”. In assay [9], the “residual efficacy of the contact active ingredients after the washing step” value (from here on “residual efficacy”) is reported as “very low”. Further, the “efficacy in the untreated area” value in assay [9] (setting [19]) was “significantly less than when FLUXAPYROXAD is used alone or with FOLPET”.

With `O=C1c2ccccc2C(=O)N1SC(Cl)(Cl)Cl` [FOLPET, folpet], the figures for the “% control observed on leaves 28 DAYS after the application” value in assay [11] (rate 1050 gAI/ha) and in [11] (rate 1200 gAI/ha) were 87.7% and 96.9%, respectively. Besides, the “% control observed on leaves 14 DAYS” value is listed as 58.3% in assay [12] (rate 900 gr (A.I.)/ha); 70.3% in assay [12] (rate 1200 gr (A.I.)/ha); 67.8% in [8] (rate 900 gAI/ha, tomato); 79.7% in [8] (rate 1200 gAI/ha, tomato). Moreover, the “% control observed on leaves 21 DAYS” value amounted to 53.2% in [13] (rate 900 gr (A.I.)/ha); 63.6% in [13] (rate 1200 gr (A.I.)/ha); 33.3% in assay [14] (rate 900 gr (A.I.)/ha); 40.8% in assay [14] (rate 1200 gr (A.I.)/ha); 60.3% in assay [2] (rate 1000 gr (A.I.)/ha); 45.3% in assay [5] (rate 900 gr (A.I.)/ha). For the same compound, the “% control observed on leaves 21 DAYS” value in [5] (rate 1200 gr (A.I.)/ha) came to 54.0%; in assay [6] (rate 1000 gr (A.I.)/ha), 35.2%. Further, the “% control observed on leaves 20 DAYS” value in assay [3] (captan or folpet 900 gAI/ha) stood at 50.5%; in [3] (setting [17]), 63.4%; in [8] (setting [22]) it was 56.7%; in assay [8] (setting [18]), 65.3%; in [8] (rate 900 gAI/ha, tomato), 56.7%; in assay [8] (rate 1200 gAI/ha, tomato), 65.3%. Further, the “% control observed on leaves 26 DAYS” value in [15] (setting [20]) is on record as 72.3%; in assay [15] (Table 3) it was 72.3%; in [7], 64.9%; in assay [16] (setting [21]) it was 73.4%; in [16] (Table 5) it was 73.4%. In addition, the “% control observed on leaves 19 DAYS after the application” value in [15] (Table 3) is listed as 80.6%; in assay [16] (Table 5) it was 82.1%. For the same compound, the “Var % (19/26 DAYS)” value in assay [15] (Table 3) is listed as −10.3%. The “difference from the untreated control” value in assay [10] is on record as “no significant difference from the untreated control”. The “Var % (14/20 DAYS)” value is −16.4% in assay [8] (rate 900 gAI/ha, tomato) and 18.1% in [8] (rate 1200 gAI/ha, tomato). Besides, the “residual efficacy” value in assay [9] is “very low”.

`O=C1C2CC=CCC2C(=O)N1SC(Cl)(Cl)Cl` (stereo not shown) [CAPTAN, captan]: the “% control observed on leaves 14 DAYS” value in [12] (rate 900 gr (A.I.)/ha) is on record as 57.0%; in [12] (rate 1200 gr (A.I.)/ha), 72.4%; in assay [8] (rate 900 gAI/ha, tomato) it was 64.9%; in assay [8] (rate 1200 gAI/ha, tomato), 76%. Further, the figures for the “% control observed on leaves 21 DAYS” value in [13] (rate 900 gr (A.I.)/ha) and in [13] (rate 1200 gr (A.I.)/ha) were 54.1% and 64.8%, respectively. Also, the “% control observed on leaves 20 DAYS” value turned out to be 51.3% in [3] (captan or folpet 900 gAI/ha); 64.3% in [3] (setting [17]); 54.5% in [8] (setting [22]); 65.9% in assay [8] (setting [18]); 54.5% in [8] (rate 900 gAI/ha, tomato); 65.9% in [8] (rate 1200 gAI/ha, tomato). Moreover, the “% control observed on leaves 26 DAYS” value in [4] (rate 600 gAI/ha) is 50.4%; in assay [4] (rate 900 gAI/ha) it was 68.1%; in assay [4] (rate 1200 gAI/ha), 78.5%; in assay [4] (rate 1500 gAI/ha) it was 89.1%; in assay [15] (setting [20]), 75.9%; in [15] (Table 3), 75.9%. The “% control observed on leaves 26 DAYS” value amounted to 68.3% in assay [7], 77% in assay [16] (setting [21]) and 77% in assay [16] (Table 5). In addition, the “% control observed on leaves 19 DAYS after the application” value in assay [15] (Table 3) was 82.6%; in assay [16] (Table 5), 83.9%. For the same compound, the “Var % (19/26 DAYS)” value in [15] (Table 3) is given as −8.1%; in assay [16] (Table 5, change of % control from 19 to 26 days), −8.2%. Besides, the “Var % (14/20 DAYS)” value in assay [8] (rate 900 gAI/ha, tomato) is recorded as −16.0%; in assay [8] (rate 1200 gAI/ha, tomato), −13.3%.

Consider `N#Cc1c(Cl)c(Cl)c(Cl)c(C#N)c1Cl` [CHLOROTHALONIL, chlorothalonil], for which the “difference from the untreated control” value in assay [10] is given as “no significant difference from the untreated control”. The “residual efficacy” value in [9] was “very low”. For the same compound, the “efficacy in the untreated area” value in [9] (setting [19]) is “significantly less than when FLUXAPYROXAD is used alone or with FOLPET”.

For the compound potassium phosphonate, the entries for the “% control observed on leaves 28 DAYS after the application” value in assay [11] (rate 1575 gAI/ha) and in assay [11] (rate 1800 gAI/ha) were 31.7% and 40.9%, respectively.
